Experimental data reported in US20230172899A1, “CANNABINOID COMPOSITIONS” (priority 2020, published 2023).
≈ marks a conversion by molar mass, not a printed value. Read-outs that look alike come from different tables or passages of the source.

Legend:
[1] = tested on: store-operated calcium entry (SOCE) in HEK293 cells; assay: SOCE inhibition, Fura-2 Ca2+ bioassay, thapsigargin-induced, HEK293 cells; format: cell-based, human; details: for IC50: Homo sapiens; for Inhibitory effect in immune cells compared with non-immune HEK293 cells: Jurkat vs HEK293 screening, 10 μM
[2] = tested on: store-operated calcium entry (SOCE) in Luva human mast cells; assay: SOCE inhibition, Fura-2 Ca2+ bioassay, thapsigargin-induced, Luva cells; format: cell-based; details: for IC50: Homo sapiens, Mast cell, read-out: IC50 SOCE Luva
[3] = tested on: store-operated calcium entry (SOCE) in RBL-2H3 rat mast cells; assay: SOCE inhibition, Fura-2 Ca2+ bioassay, thapsigargin-induced, RBL-2H3 cells; format: cell-based; details: for IC50: Rattus norvegicus
[4] = tested on: store-operated calcium entry (SOCE) in U937 monocytes; assay: SOCE inhibition, Fura-2 Ca2+ bioassay, thapsigargin-induced, U937 cells; format: cell-based, human; details: for IC50: Homo sapiens
[5] = tested on: store-operated calcium entry (SOCE) in THP-1 cells; assay: SOCE inhibition, combinatory (isobolographic) analysis, THP-1 cells; format: cell-based, human; details: for Combinatory effect on SOCE inhibition when paired with CBGA: THP-1 cells, isobolographic analysis, pairs expected to inhibit 50%
Protocol: Bar graphs shown in FIGS. 10A-10Z and 10BB display SOCE amplitudes calculated from area under the curve (AUC) of the SOCE signals and normalized to SOCE in the presence of gadolinium. Combinatory effects were assessed using an isobolographic analysis approach, where CBGA was paired with another cannabinoid using concentrations of CBGA corresponding to 50%, 40%, 30%, 20%, 10%, and 0% inhibition (as derived from the IC50 curves of FIGS. 9A-9P) and combined with concentrations of the paired cannabinoid, so that each combination would be expected to inhibit 50% of the Ca^2+ signal (e.g., the CBGA concentration causing 50% inhibition was tested alone without the other cannabinoid, the CBGA concentration expected to block 40% of the signal was combined with the concentration of the other cannabinoid expected to inhibit 10%, the CBGA concentration expected to block 30% of the signal was combined with the concentration of the other cannabinoid expected to inhibit 20%, and so on). Simple additivity of cannabinoid pairs would be expected to inhibit the Ca^2+ signal by 50%. All the data in these experiments represent an average of 3 independent runs and the values are graphed as mean values±SEM.

[6] = tested on: store-operated calcium entry (SOCE) in Jurkat T cells; assay: SOCE inhibition, Fura-2 Ca2+ bioassay, thapsigargin-induced, Jurkat cells; format: cell-based, human; details: for IC50: Homo sapiens; for IC50 on SOCE relative to acidic variations: dose response 0 to 30 μM; for Combinatory effect on SOCE inhibition when paired with CBGA: isobolographic analysis, pairs expected to inhibit 50%
[7] = tested on: store-operated calcium entry (SOCE) in THP-1 cells; assay: SOCE inhibition, combinatory (isobolographic) analysis, THP-1 cells; format: cell-based, human; details: 10 μM cannabinoid plus 2.2 μM CBGA
[8] = HEK293, read-out: IC50 SOCE HEK-293, Table 5, individual cannabinoids, HEK-293
[9] = RBL-2H3, read-out: IC50 SOCE RBL-2H3, Table 5, individual cannabinoids, RBL-2H3
[10] = U-937, read-out: IC50 SOCE U937, Table 5, individual cannabinoids, U937
[11] = Jurkat, read-out: IC50 SOCE Jurkat, Table 5, individual cannabinoids, Jurkat
[12] = HEK293, read-out: IC50 SOCE HEK-293
[13] = RBL-2H3, read-out: IC50 SOCE RBL-2H3
[14] = U-937, read-out: IC50 SOCE U937
[15] = Jurkat, read-out: IC50 SOCE Jurkat

Structure (SMILES) | IC50 [1, 8] [µg/mL] | IC50 [2] [µg/mL] | IC50 [3, 9] [µg/mL] | IC50 [4, 10] [µg/mL] | IC50 [6, 11] [µg/mL] | Combinatory effect on SOCE inhibition when paired with CBGA ([6]; Jurkat cells) | further results
CCCCCc1cc(O)c(C/C=C(\C)CCC=C(C)C)c(O)c1 [CBG, (E)-2-(3,7-dimethylocta-2,6-dien-1-yl)-5-pentylbenzene-1,3-diol] | > 50 | 33.6 (≈ 106 µM) | 3.29 (≈ 10.4 µM) | 33.5 (≈ 106 µM) | 2.36 (≈ 7.46 µM) | stronger than predicted inhibitions | IC50 ([5]; Homo sapiens, THP-1, read-out: SOCE IC50): > 30 µM; IC50 on SOCE relative to acidic variations ([6]; Jurkat cells): higher IC50 than their acidic variations; Combinatory effect when paired with 2.2 μM CBGA [7]: simple additive agonists
C=C(C)[C@@H]1CCC(C)=C[C@H]1c1c(O)cc(CCC)c(C(=O)O)c1O [CBDVA, (1′R,2′R)-2,6-dihydroxy-5′-methyl-2′-(prop-1-en-2-yl)-4-propyl-1′,2′,3′,4′-tetrahydro-[1,1′-biphenyl]-3-carboxylic acid] |  | 8.45 (≈ 25.6 µM) |  |  |  | inhibit less than predicted | IC50 [1, 12]: 23.5 µg/mL (≈ 71.2 µM); IC50 [3, 13]: 11.3 µg/mL (≈ 34.3 µM); IC50 [4, 14]: 10.6 µg/mL (≈ 32.2 µM); IC50 [6, 15]: 11.3 µg/mL (≈ 34.2 µM)
C=C(C)[C@@H]1CCC(C)=C[C@H]1c1c(O)cc(CCCCC)c(C(=O)O)c1O [CBDA, (1′R,2′R)-2,6-dihydroxy-5′-methyl-4-pentyl-2′-(prop-1-en-2-yl)-1′,2′,3′,4′-tetrahydro-[1,1′-biphenyl]-3-carboxylic acid] | 16.1 (≈ 45 µM) | 5.17 (≈ 14.4 µM) | 2.4 (≈ 6.69 µM) | 5.83 (≈ 16.3 µM) | 4.07 (≈ 11.4 µM) | inhibit less than predicted | Inhibitory effect in immune cells compared with non-immune HEK293 cells [1]: selective; Combinatory effect on SOCE inhibition when paired with CBGA [5]: sub-additive combinatory effects
CCCCCc1cc2c(c(O)c1C(=O)O)[C@@H]1[C@H]3C(CC[C@@]3(C)O2)C1(C)C (stereo partly drawn) [CBLA, (1aS,1a1R,3aR,8bR)-8-hydroxy-1,1,3a-trimethyl-6-pentyl-1a,1a1,2,3,3a,8b-hexahydro-1H-4-oxabenzo[f]cyclobuta[cd] indene-7-carboxylic acid] |  | 12.4 (≈ 34.5 µM) |  |  |  | inhibit less than predicted | IC50 [1, 12]: > 50 µg/mL; IC50 [3, 13]: 20.9 µg/mL (≈ 58.2 µM); IC50 [4, 14]: 28.3 µg/mL (≈ 79 µM); IC50 [6, 15]: 9.29 µg/mL (≈ 25.9 µM)
CCCCCc1cc2c(c(O)c1C(=O)O)[C@@H]1C=C(C)CC[C@H]1C(C)(C)O2 [THCA, (6aR,10aR)-1-hydroxy-6,6,9-trimethyl-3-pentyl-6a,7,8,10a-tetrahydro-6H-benzo[c]chromene-2-carboxylic acid] | 17.5 (≈ 48.9 µM) | 10.4 (≈ 29 µM) | 0.57 (≈ 1.59 µM) | 8.1 (≈ 22.6 µM) | 2.23 (≈ 6.22 µM) | Simple additive behavior | Combinatory effect on SOCE inhibition when paired with CBGA [5]: sub-additive combinatory effects
CCCCCc1cc(O)c2c(c1)OC(C)(C)[C@@H]1CCC(C(=O)O)=C[C@@H]21 [11-nor-COOH-Δ9-THC, (6aR,10aR)-1-hydroxy-6,6-dimethyl-3-pentyl-6a,7,8,10a-tetrahydro-6H-benzo[c]chromene-9-carboxylic acid] |  |  |  |  |  |  | Inhibitory effect in immune cells compared with non-immune HEK293 cells [1]: selective
CCCCCc1cc(O)c2c(c1)O[C@]1(C)CCC3[C@@H]1[C@@H]2C3(C)C (stereo partly drawn) [CBL, (1aS,1a1R,3aR,8bR)-1,1,3a-trimethyl-6-pentyl-1a,1a1,2,3,3a,8b-hexahydro-1H-4-oxabenzo[f]cyclobuta[cd] inden-8-ol] | > 50 | > 50 | > 50 | > 50 | > 50 | Simple additive behavior | 
CCCc1cc2c(c(O)c1C(=O)O)[C@@H]1C=C(C)CC[C@H]1C(C)(C)O2 [THCVA, (6aR,10aR)-1-hydroxy-6,6,9-trimethyl-3-propyl-6a,7,8,10a-tetrahydro-6H-benzo[c]chromene-2-carboxylic acid] | 21.3 (≈ 64.6 µM) | 9.43 (≈ 28.5 µM) | 20.2 (≈ 61.2 µM) | 20.2 (≈ 61 µM) | 0.633 (≈ 1.92 µM) | stronger than predicted inhibitions | Combinatory effect on SOCE inhibition when paired with CBGA [5]: sub-additive combinatory effects
CCCCCc1cc2c(c(O)c1C(=O)O)-c1cc(C)ccc1C(C)(C)O2 [CBNA, 1-hydroxy-6,6,9-trimethyl-3-pentyl-6H-benzo[c]chromene-2-carboxylic acid] | 22.5 (≈ 63.5 µM) | 7.25 (≈ 20.5 µM) | > 50 | 19.2 (≈ 54.1 µM) | 0.99 (≈ 2.79 µM) | Simple additive behavior | Combinatory effect on SOCE inhibition when paired with CBGA [5]: sub-additive combinatory effects
CCCCCc1cc(O)c2c(c1)OC(C)(C)[C@@H]1CCC(C)=C[C@@H]21 [Δ9-THC, (6aR,10aR)-6,6,9-trimethyl-3-pentyl-6a,7,8,10a-tetrahydro-6H-benzo[c]chromen-1-ol] | > 50 | > 50 | 0.97 (≈ 3.08 µM) | > 50 | > 50 |  | Effect on SOCE (Ca2+ signals), pure compounds ([6]; Jurkat cells, compounds at 10 μM, 1 μM thapsigargin): low to no effects; IC50 on SOCE relative to acidic variations ([6]; Jurkat cells): higher IC50 than their acidic variations
C=C(C)[C@@H]1CCC(C)=C[C@H]1c1c(O)cc(CCC)cc1O [CBDV, (1′R,2′R)-5′-methyl-2′-(prop-1-en-2-yl)-4-propyl-1′,2′,3′,4′-tetrahydro-[1,1′-biphenyl]-2,6-diol] | 30.2 (≈ 105 µM) | > 50 | 0.17 (≈ 0.594 µM) | 17.5 (≈ 61.1 µM) | 6 (≈ 20.9 µM) | inhibit less than predicted | Inhibitory effect in immune cells compared with non-immune HEK293 cells [1]: selective
C=C(C)c1ccc(C)cc1-c1c(O)cc(CCCCC)cc1O [CBND, 5′-methyl-4-pentyl-2′-(prop-1-en-2-yl)-[1,1′-biphenyl]-2,6-diol] | 32.8 (≈ 106 µM) | > 50 | 19 (≈ 61.2 µM) | 24 (≈ 77.3 µM) | 6.7 (≈ 21.6 µM) | Simple additive behavior | 
CCCCCc1cc(O)c2c(c1)OC(C)(CCC=C(C)C)C=C2 (centres unmarked) [CBC, 2-methyl-2-(4-methylpent-3-en-1-yl)-7-pentyl-2H-chromen-5-ol] |  |  |  |  |  |  | IC50 SOCE HEK-293 ([1]; Table 5, individual cannabinoids, HEK-293): 31.6 µg/mL (≈ 100 µM); IC50 SOCE Luva ([2]; Table 5, individual cannabinoids, Luva): >50 µg/mL; IC50 SOCE RBL-2H3 ([3]; Table 5, individual cannabinoids, RBL-2H3): 26.8 µg/mL (≈ 85.2 µM); IC50 SOCE U937 ([4]; Table 5, individual cannabinoids, U937): 40.8 µg/mL (≈ 130 µM); IC50 SOCE Jurkat ([6]; Table 5, individual cannabinoids, Jurkat): 13.06 µg/mL (≈ 41.5 µM)
CCCCCc1cc(OC)c2c(c1)OC(C)(C)c1ccc(C)cc1-2 [CBNM, 1-methoxy-6,6,9-trimethyl-3-pentyl-6H-benzo[c]chromene] | > 50 | > 50 | > 50 | > 50 | > 50 |  | 
CCCc1cc(O)c2c(c1)OC(C)(C)[C@@H]1CCC(C)=C[C@@H]21 [THCV, (6aR,10aR)-6,6,9-trimethyl-3-propyl-6a,7,8,10a-tetrahydro-6H-benzo[c]chromen-1-ol] | > 50 | > 50 | > 50 | > 50 | 10.7 (≈ 37.5 µM) | stronger than predicted inhibitions | Inhibitory effect in immune cells compared with non-immune HEK293 cells [1]: selective
CCCCCc1cc2c(c(O)c1C(=O)O)C=C[C@@](C)(CCC=C(C)C)O2 [CBCA, (R)-5-hydroxy-2-methyl-2-(4-methylpent-3-en-1-yl)-7-pentyl-2H-chromene-6-carboxylic acid] | > 50 | 29.1 (≈ 81.3 µM) | > 50 | > 50 | 1.13 (≈ 3.15 µM) | Simple additive behavior | 
CCCc1cc(O)c(C/C=C(\C)CCC=C(C)C)c(O)c1C(=O)O [CBGVA, (E)-3-(3,7-dimethylocta-2,6-dien-1-yl)-2,4-dihydroxy-6-propylbenzoic acid] | 4.15 (≈ 12.5 µM) | 2.6 (≈ 7.82 µM) | 2.53 (≈ 7.61 µM) | 2.86 (≈ 8.6 µM) | 1.15 (≈ 3.46 µM) | Simple additive behavior | Combinatory effect on SOCE inhibition when paired with CBGA [5]: sub-additive combinatory effects
